Source: patent US20110034466A1, “NOVEL FIVE-MEMBERED RING COMPOUND” (priority 2008, published 2011)

Legend:
rat lung membrane SMBS = assay: Receptor-binding assessment test using rat lung membranes ([125I]-iodocyanopindolol ligand binding assay); settings: 1 μM test compound; ratio of inhibiting specific binding of [125I]-iodocyanopindolol to rat lung membrane SMBS
Experimental: Receptor-Binding Assessment Test of Compounds Using Rat Lung Membranes
The assessment test was carried out according to the method of Sugasawa, T. et al., J. Biol. Chem., 272, 21244-21252 (1997).
Preparation of Rat Lung Membranes
Lung taken out from SD male rat (7-week old under test, Charles River Laboratories Japan, Inc.) was removed trachea and blood vessels to shred and washed with iced tris-saline buffer (10 mM tris hydrochloric acid-154 mM sodium chloride, pH7.4). The resultant was homogenized by Hiscotron with ice-cold tris-saline buffer containing a homogenization buffer (1 mM ethylenediaminetetraacetic acid (EDTA), 1 mM 4-(2-aminoethyl)benzenesulfonyl fluoride (AEBSF), 5 μg/ml aprotinin, 5 μg/ml leupeptine) (maximum rate: 1 minute). The supernatant after low-speed centrifugation (1500×g, 20 minutes, 4° C.) was ultracentrifuged (100000×g, 20 minutes, 4° C.), and the pellet was suspended in tris-saline buffer to store at −80° C. The protein concentrations were determined by Bio-Rad Protein Assay Kit using bovine serum albumin (BSA) as a standard.
To each well in protein-nonabsorptive round-bottom 96-well assay plate (commercially available from Iwaki Glass Co., Ltd.) were added tris-saline buffer (200 μl) containing 1 nM [^125I]-iodocyanopindolol (commercially available from Amersham plc), 10 μM serotonine, 20 μm dl-propranolol, 10 μM phentolamine, 1.1 mM ascorbic acid and 100 μg lung membrane, and the mixture was pipetted to combine and then incubated at 37° C. for 30 minutes. The test compounds were dissolved in 100% dimethyl sulfoxide solution, and thereto was added 2 μl (final DMSO concentration: 1%). In order to calculate nonspecific binding amounts, to the mixture was added L-threo-3-(3,4-dihydroxyphenyl)-N-[3-(4-fluorophenyl)propyl]serine pyrrolidine amide at 100 μM of the final concentration as an alternative to the test compounds. During this time, 100 μl of 0.3% polyethyleneimine (PEI)/tris-saline buffer was added to MultiScreen plate (96-well B glass fiber, Millipore Cat. No. MAFB NOB10), and incubated for over 30 minutes. The resultant was filtered with aspiration (aspiration by the addition of 200 μl iced tris-saline buffer) to wash, and the reaction solutions on 96-well assay plate were filtered with aspiration to wash four times on MultiScreen plate. B glass fiber filter paper at the bottom of MultiScreen plate was punched out, and γ-ray doses of [^125I]-iodocyanopindolol trapped on the filter paper were determined as binding amounts. The binding amounts in the presence of DMSO (final concentration: 1%) were total binding amounts, and the binding amounts in the presence of 100 μM L-threo-3-(3,4-dihydroxyphenyl)-N-[3-(4-fluorophenyl)propyl]serine pyrrolidine amide were nonspecific binding amounts. The values subtracted the nonspecific binding amounts from the total binding amounts were the specific binding amounts. The binding activity of a compound was calculated according to the following formula, which was shown in the ratio of inhibiting the specific binding of [^125I]-iodocyanopindolol to rat lung membrane SMBS by the test compound.

[1] = system: Corticosterone generation; assay: Assessment test of steroid hormone synthesis inhibition (Corticosterone generation in rat adrenal gland cells); type: cell-based; settings: 10 μM test article, rat adrenal cells with cAMP, 2 hours, read-out: Steroid Synthesis Inhibition Rate (%) (10 μM)
Source text: Assessment Test of Steroid Hormone Synthesis Inhibition
• Cell Strainer (BD Falcon®) • Cell Titer-Glo® (Promega) • Collagenase from Clostridium histolyticum (Sigma-Aldrich) • Corticosterone EIA kit (Cayman) • Dimethylsulfoxide (referred to as DMSO hereinafter) (nacalai tesque) • D-MEM (GIBCO) • DNase I (Invitrogen) • Fetal Bovine Serums (referred to as FBS hereinafter) (Bioflud) • Multiple well plates for adhesive cell culture, 96 wells (IWAKI) • N^6,2′-O-Dibutyryladenosine 3′,5′-cyclic monophosphate sodium salt (referred to as cAMP hereinafter) (Sigma) • Penicillin Streptomycin Mixed Solution (nacalai tesque)
Control examples 1 to 4: Control example 1 was Example 350 of Patent Document 2. Control examples 2 to 4 were synthesized according to Patent Document 2.
Adrenal glands were taken out from rats, and removed excess connective tissues, adiposes and membranes in D-MEM. The adrenal glands were transferred to polytubes, and quickly segmentalized with scissors. Thereto was added D-MEM containing 1 mg/mL collagenase and 0.25 μL DNase 1, and then the mixture was shaken at 37° C. for 10 minutes in 80 times/minute. Then, the mixture was pipetted by 1 mL truncated pipette tip, and shaken again under the same condition. After 10 minutes, the mixture was pipetted again by 1 mL pipette tip, and the cell suspension was filtered through metal mesh. The filtrate was centrifuged at 4° C. for 5 minutes in 500 g. The supernatant was removed, and thereto was added a mixed solution of 0.16 M NH4Cl and 0.17 M Tris-HCl in 3 mL. The mixture was let stand on ice for 5 minutes, and then centrifuged under the same condition. Then, the supernatant was removed and then thereto was added D-MEM. The cell suspension was prepared and centrifuged under the same condition. Again, the supernatant was removed and then thereto was added D-MEM to give a cell suspension. The cell suspension was filtered by Cell Strainer (BD Falcon®). The filtrate was centrifuged under the same condition. After the completion of the centrifugation, the supernatant was removed, and thereto was added D-MEM containing 1% Penicillin Streptomycin Mixed Solution and 10% FBS. The mixture was seeded in Multiple well plate for adhesive cell culture, 96 wells (IWAKI) in 10000 cells/well, and incubated at 37° C. overnight in CO2 incubator.
Test article concentrations were prepared in DMSO to 2000 μM, and D-MEM containing 20 μM test article in D-MEM was prepared.
Cell-seeded plate was incubated overnight, and then the medium was removed and thereto was added D-MEM containing 20 μM test article in 50 μL/well. Then, to the mixture was promptly added D-MEM containing 20 μM cAMP in 50 μL/well so that the final concentration of the test article was 10 μM. After the addition of 2 types of D-MEM, the mixture was incubated at 37° C. for 2 hours in CO2 incubator. After 2 hours, the supernatant (50 μL) of the medium was collected. For cells, the cell toxicity of the test article was assessed according to a conventional method using Cell Titer-Glo® (Promega). For the collected supernatant, the Corticosterone concentration in the supernatant was determined according to a conventional method using Corticosterone EIA kit (Cayman).
The inhibition rate of 10 μM test article to Corticosterone generation was calculated according to the following formula confirming that the cell toxicity by the test article was not recognized.

Binding Activity (%) (1 μM) (rat lung membrane SMBS) | melting point | Compound | inhibition at 10 µM [1]
88% | – | CNC(=O)NCCn1c(-c2ccc(CN3CCOCC3)cc2C)cs/c1=N\c1ccc(F)c(C)c1 [Example 18, N-{2-[(2Z)-2-[(4-Fluoro-3-methylphenyl)imino]-4-[2-methyl-4-(morpholin-4-ylmethyl)phenyl]-1,3-thiazol-3(2H)-yl]ethyl}-N′-methylurea] | 28%
82% | – | CNC(=O)NCCn1c(-c2ccc(CN3CCOCC3)c(OC)c2)cs/c1=N\c1ccc(F)c(C)c1 [Example 21, N-{2-[(2Z)-2-[(4-Fluoro-3-methylphenyl)imino]-4-[3-methoxy-4-(morpholin-4-ylmethyl)phenyl]-1,3-thiazol-3(2H)-yl]ethyl}-N′-methylurea] | 8%
– | 171 to 174 °C | CNC(=O)NCCn1c(-c2ccc(CN3CCOCC3)cc2C)cs/c1=N\c1ccc(C)c(F)c1 [Example 22] | –
– | 119 to 121 °C | CNC(=O)NCCn1c(-c2ccc(CN3CCOCC3)cc2C)cs/c1=N\c1cccc(F)c1 [Example 23] | –
– | 122 to 125 °C | CNC(=O)NCCn1c(-c2ccc(CN3CCOCC3)cc2C)cs/c1=N\c1ccc(F)cc1C [Example 24] | –
– | 154 to 160 °C | CNC(=O)NCCn1c(-c2ccc(CN3CCOCC3)cc2C)cs/c1=N\c1ccc(F)cc1F [Example 25] | –
– | 132 to 135 °C | CNC(=O)NCCn1c(-c2ccc(CN3CCOCC3)cc2C)cs/c1=N\c1cccc(F)c1F [Example 26] | –
– | 151 to 152 °C | CNC(=O)NCCn1c(-c2ccc(CN3CCOCC3)c(C)c2)cs/c1=N\c1cccc(F)c1 [Example 27] | –
– | 163 to 166 °C | CNC(=O)NCCn1c(-c2ccc(CN3CCOCC3)cc2OC)cs/c1=N\c1cccc(F)c1 [Example 28] | –
– | 144 to 150 °C | CNC(=O)NCCn1c(-c2ccc(CN3CCOCC3)cc2OC)cs/c1=N\c1ccc(C)c(F)c1 [Example 29] | –
– | 161 to 165 °C | CNC(=O)NCCn1c(-c2ccc(CN3CCOCC3)cc2OC)cs/c1=N\c1cccc(F)c1F [Example 30] | –
– | 170 to 174 °C | CNC(=O)NCCn1c(-c2ccc(CN3CCOCC3)c(OC)c2)cs/c1=N\c1cccc(F)c1 [Example 31] | –
– | 150 to 153 °C | CNC(=O)NCCn1c(-c2ccc(CN3CCOCC3)c(OC)c2)cs/c1=N\c1cccc(F)c1F [Example 32] | –
– | 164 to 169 °C | CNC(=O)NCCn1c(-c2ccc(CN3CCOCC3)c(OC)c2)cs/c1=N\c1ccc(F)cc1F [Example 33] | –
– | 154 to 160 °C | CNC(=O)NCCn1c(-c2ccc(CCN3CCOCC3)cc2)cs/c1=N\c1cccc(F)c1 [Example 45] | –
– | 155 to 164 °C | CNC(=O)NCCn1c(-c2ccc(CCN3CCOCC3)cc2)cs/c1=N\c1cccc(F)c1F [Example 46] | –
– | 166 to 172 °C | CNC(=O)NCCn1c(-c2ccc(CCN3CCOCC3)cc2)cs/c1=N\c1ccc(F)cc1F [Example 47] | –
– | 183 to 186 °C | CCNC(=O)NCCn1c(-c2ccc(C(=O)N3CCOCC3)cc2)cs/c1=N\c1ccc(F)c(C)c1 [Example 53] | –
– | 179 to 180 °C | CCNC(=O)NCCn1c(-c2ccc(C(=O)N3CCOCC3)cc2)cs/c1=N\c1ccc(F)cc1F [Example 54] | –
– | 175 to 178 °C | CCNC(=O)NCCn1c(-c2ccc(C(=O)N3CCOCC3)cc2)cs/c1=N\c1ccc(C)c(F)c1 [Example 55] | –
– | 182 to 186 °C | CCNC(=O)NCCn1c(-c2ccc(C(=O)N3CCOCC3)cc2)cs/c1=N\c1cccc(Cl)c1 [Example 56] | –
– | 172 to 177 °C | CCNC(=O)NCCn1c(-c2ccc(C(=O)N3CCOCC3)cc2)cs/c1=N\c1cccc(F)c1 [Example 57] | –
– | 196 to 203 °C | CCNC(=O)NCCn1c(-c2ccc(C(=O)N3CCOCC3)cc2)cs/c1=N\c1ccc(F)c(C)c1 [Example 58] | –
66% | 191 to 198 °C | CCNC(=O)NCCn1c(-c2ccc(C(=O)N3CCOCC3)cc2)cs/c1=N\c1cccc(Cl)c1 [Example 59] | 7%
– | 170 to 176 °C | CCNC(=O)c1ccc(-c2cs/c(=N\c3cccc(F)c3)n2CCNC(=O)NC)cc1 [Example 60] | –
62% | 172 to 178 °C | CCNC(=O)c1ccc(-c2cs/c(=N\c3ccc(F)cc3)n2CCNC(=O)NC)cc1 [Example 61] | 6%
65% | 180 to 188 °C | CCNC(=O)c1ccc(-c2cs/c(=N\c3ccc(F)c(F)c3)n2CCNC(=O)NC)cc1 [Example 62] | 2%
– | 185 to 192 °C | CCNC(=O)c1ccc(-c2cs/c(=N\c3cccc(Cl)c3)n2CCNC(=O)NC)cc1 [Example 63] | –
– | 179 to 185 °C | CNC(=O)NCCn1c(-c2ccc(C(=O)NC3CC3)cc2)cs/c1=N\c1cccc(F)c1 [Example 64] | –
